≈ marks a conversion by molar mass, not a printed value. Like-named read-outs stand apart in the source and are kept apart here.
Experiments:
[1] = tested on: Serratia marcescens 27; assay: MIC and FIC, Nutrient agar (Test 7); format: cell-based; settings: S. marcescens 27, 18 h
Procedure: (§1) FIC values and FIC Index were calculated in substantially the same manner as described in Test 1.

[2] = tested on: Pseudomonas aeruginosa 42; assay: MIC and FIC, Nutrient agar (Test 7); format: cell-based
Procedure: as §1

[3] = tested on: Staphylococcus aureus 1; assay: MIC and FIC, Nutrient agar (Test 7); format: cell-based; settings: S. aureus 1, 18 h
Procedure: as §1

[4] = tested on: Proteus mirabilis 5; assay: MIC and FIC, Nutrient agar (Test 7); format: cell-based; settings: P. mirabilis 5, 18 h
Procedure: as §1

[5] = tested on: Enterobacter aerogenes 7; assay: MIC and FIC, Nutrient agar (Tests 6, 7, 9); format: cell-based; settings: E. aerogenes 7, 18 h
Procedure: as §1

[6] = tested on: Pseudomonas aeruginosa No.7; assay: MIC and FIC, Nutrient agar, multiple inoculator (Test 4); format: cell-based; settings: P. aeruginosa No.7, 10^8 cells/ml, 20 h
Procedure: (§2) After the incubation was carried out at 37° C. for 20 hours, MIC values were determined.
as §1

[7] = tested on: Pseudomonas aeruginosa No.5; assay: MIC and FIC, Nutrient agar, multiple inoculator (Tests 4, 5); format: cell-based; settings: P. aeruginosa No.5, 10^8 cells/ml, 20 h
Procedure: as §2

[8] = tested on: Pseudomonas aeruginosa No.14; assay: MIC and FIC, Nutrient agar, multiple inoculator (Test 4); format: cell-based; settings: P. aeruginosa No.14, 10^8 cells/ml, 20 h
Procedure: as §2, §1

[9] = tested on: Pseudomonas aeruginosa No.9; assay: as above; format: cell-based; settings: P. aeruginosa No.9, 10^8 cells/ml, 20 h
Procedure: as §2, §1

[10] = tested on: Pseudomonas aeruginosa No.15; assay: as above; format: cell-based; settings: P. aeruginosa No.15, 10^8 cells/ml, 20 h
Procedure: as §2, §1

[11] = tested on: Escherichia coli No.14; assay: as above; format: cell-based; settings: E. coli No.14, 10^8 cells/ml, 20 h
Procedure: as §2

[12] = tested on: Citrobacter freundii 35; assay: MIC and FIC, Nutrient agar (Tests 6, 7, 9); format: cell-based; settings: C. freundii 35, 18 h
[13] = tested on: Escherichia coli 99; assay: MIC and FIC, Nutrient agar (Test 6); settings: E. coli 99; 18 h
Procedure: as §1

[14] = tested on: Pseudomonas aeruginosa No.11; assay: MIC and FIC, Nutrient agar, multiple inoculator (Test 5); format: cell-based; settings: P. aeruginosa No.11; 10^8 cells/ml, 20 h
Procedure: as §2, §1

[15] = tested on: Pseudomonas aeruginosa No.13; assay: as above; format: cell-based; settings: P. aeruginosa No.13; 10^8 cells/ml, 20 h
Procedure: as §2, §1

[16] = tested on: Pseudomonas aeruginosa No.12; assay: as above; format: cell-based; settings: P. aeruginosa No.12; 10^8 cells/ml, 20 h
Procedure: as §2, §1

[17] = tested on: Proteus vulgaris 5; assay: MIC and FIC, Nutrient agar (Test 6); format: cell-based; settings: P. vulgaris 5; 18 h
Procedure: as §1

[18] = tested on: Serratia marcescens 9; assay: MIC and FIC, Nutrient agar (Test 6); format: cell-based; settings: S. marcescens 9; 18 h
Procedure: as §1

[19] = tested on: Pseudomonas aeruginosa No.18; assay: MIC and FIC, Nutrient agar, multiple inoculator (Test 5); format: cell-based; settings: P. aeruginosa No.18; 10^8 cells/ml, 20 h
Procedure: as §2, §1

[20] = tested on: Staphylococcus aureus 3; assay: MIC and FIC, Nutrient agar (Tests 6, 7); format: cell-based; settings: S. aureus 3; 18 h
Procedure: as §1

[21] = tested on: Klebsiella pneumoniae 8; assay: Isobologram, growth in Nutrient broth in various combination ratios (Test 8); format: cell-based; design: key: +: the test microorganism grew; -: the test microorganism did not grow; settings: phosphonic acid salt 0
Procedure: After the incubation was carried out at 37° C. for 18 hours, the growth of the test organism was observed.

[22] = tested on: Proteus mirabilis 48; assay: MIC and FIC, Nutrient agar (Test 7); format: cell-based; settings: P. mirabilis 48, 18 h
Procedure: as §1

[23] = tested on: Enterobacter aerogenes 25; assay: microbe, parasite or virus in culture; settings: Klebsiella aerogenes, 25, 18 h
[24] = tested on: Pseudomonas aeruginosa 77; assay: MIC and FIC, Nutrient agar (Test 7); format: cell-based; settings: P. aeruginosa 77, 18 h
Procedure: as §1

[25] = tested on: Escherichia coli 82; assay: MIC and FIC, Nutrient agar (Test 7); format: cell-based; settings: E. coli 82, 18 h
Procedure: as §1

[26] = tested on: Staphylococcus aureus 2; assay: MIC and FIC, Nutrient agar (Test 7); format: cell-based; settings: S. aureus 2, 18 h
Procedure: as §1

[27] = tested on: Proteus vulgaris 7; assay: MIC and FIC, Nutrient agar (Tests 7, 9); format: cell-based; settings: Proteus vulgaris, 7, 18 h, P. vulgaris 7
[28] = tested on: Serratia marcescens 4; assay: MIC and FIC, Nutrient agar (Test 9); format: cell-based; settings: S. marcescens 4, 18 h
Procedure: as §1

[29] = tested on: Proteus vulgaris 22; assay: MIC and FIC, Nutrient agar (Test 9); format: cell-based; settings: P. vulgaris 22, 18 h
Procedure: as §1

[30] = tested on: Citrobacter freundii 63; assay: MIC and FIC, Nutrient agar (Test 9); format: cell-based; settings: C. freundii 63, 18 h
Procedure: as §1

[31] = tested on: Enterobacter cloacae 18; assay: MIC and FIC, Nutrient agar (Tests 7, 9); format: cell-based; settings: Enterobacter cloacae, 18, 18 h, E. cloacae 18, read-out: MIC
Procedure: as §1

[32] = tested on: Escherichia coli 116; assay: MIC and FIC, Nutrient agar (Test 7); format: cell-based; settings: E. coli 116, 18 h
Procedure: as §1

[33] = Klebsiella aerogenes, read-out: MIC

With `NCC[C@H](O)C(=O)N[C@@H]1C[C@H](N)[C@@H](O[C@H]2O[C@H](CN)[C@@H](O)[C@H](O)[C@H]2O)[C@H](O)[C@H]1O[C@H]1O[C@H](CO)[C@@H](O)[C@H](N)[C@H]1O` [B (Table 11), amikacin] the MIC [1] was 12.5 µg/mL, the MIC ([2]; Pseudomonas aeruginosa, P. aeruginosa 42, 18 h, read-out: MIC) was 6.25 µg/mL and the MIC [3] was 0.78 µg/mL. It also gave an MIC [4] of 3.13 µg/mL and an MIC [5, 33] of 6.25 µg/mL.

In the case of `CC1(C)S[C@@H]2[C@H](NC(=O)C(C(=O)O)c3ccccc3)C(=O)N2[C@H]1C(=O)O` (some centres unmarked) [B (Table 6), carbenicillin], the MIC [6] is reported as > 800 µg/mL, the MIC ([7]; Pseudomonas aeruginosa, read-out: MIC) is reported as 50 µg/mL and the MIC [8] is reported as > 800 µg/mL. For the same molecule, the MIC [9] was > 800 µg/mL, the MIC [10] was 800 µg/mL and the MIC [11] was 12.5 µg/mL.

Work on gentamicin [B (Table 7)] yielded an MIC [12] of 3.13 µg/mL, an MIC [13] of 12.5 µg/mL and an MIC [14] of 3.13 µg/mL. The MIC [15] was 100 µg/mL, the MIC [16] was 12.5 µg/mL and the MIC [7] was 50 µg/mL. It also gave an MIC [17] of 6.25 µg/mL, an MIC [18] of 50 µg/mL and an MIC [19] of 50 µg/mL. For the same molecule, the MIC [5] was 6.25 µg/mL, the MIC [20] was 0.39 µg/mL and the “growth of the test organism” value ([21]; gentamicin sulfate 0.001 mcg/ml) was “+”. The “growth of the test organism” value ([21]; gentamicin sulfate 0.003 mcg/ml) was “+”, the “growth of the test organism” value ([21]; gentamicin sulfate 0.006 mcg/ml) was “+” and the “growth of the test organism” value ([21]; gentamicin sulfate 0.01 mcg/ml) was “+”. For the same molecule, the “growth of the test organism” value ([21]; gentamicin sulfate 0.025 mcg/ml) was “+” and the “growth of the test organism” value ([21]; gentamicin sulfate 0.05 mcg/ml) was “-”.

`NC[C@@H]1CC[C@@H](N)[C@@H](O[C@H]2[C@H](O)[C@@H](O[C@H]3O[C@H](CO)[C@@H](O)[C@H](N)[C@H]3O)[C@H](N)C[C@@H]2N)O1` [B (Table 10), dibekacin] was tested, and the MIC [22] was 12.5 µg/mL, the MIC [23] was 6.25 µg/mL (≈ 13.8 µM) and the MIC ([12]; Citrobacter freundii, 35, 18 h) was 6.25 µg/mL. It also gave an MIC [24] of 3.13 µg/mL, an MIC [25] of 6.25 µg/mL and an MIC [26] of 1.56 µg/mL. The MIC [27] was 50 µg/mL.

For `CC1=C(C(=O)O)N2C(=O)[C@@H](NC(=O)[C@H](N)c3ccccc3)[C@H]2SC1` [B (Table 14), Cephalexin], the MIC [28] was 400 µg/mL, the MIC [29] was 25 µg/mL and the MIC [30] was 400 µg/mL. For the same molecule, the MIC [31] was 100 µg/mL and the MIC [5, 33] was 100 µg/mL.

`NC[C@H]1O[C@H](O[C@H]2[C@H](O)[C@@H](O[C@H]3O[C@H](CO)[C@@H](O)[C@H](N)[C@H]3O)[C@H](N)C[C@@H]2N)[C@H](N)[C@@H](O)[C@@H]1O` [B (Table 12), bekanamycin] showed an MIC [32] of 200 µg/mL, an MIC ([2]; Pseudomonas aeruginosa, 42, 18 h) of 100 µg/mL and an MIC [31] of 6.25 µg/mL. It also gave an MIC [5, 33] of 6.25 µg/mL.

Reference: US4330529A, “Antibacterial composition” (Fujisawa Pharmaceutical Co., Ltd., priority 1979, dated 1982)
